biological target: Serine/threonine-protein kinase D1 (Homo sapiens) (UniProt Q15139); test: inhibition potency against human PKD1 – biochemical, fluorescence polarization, dose response (AID 1408); conditions: not given
Sequence (Q15139 whole entry, looked up): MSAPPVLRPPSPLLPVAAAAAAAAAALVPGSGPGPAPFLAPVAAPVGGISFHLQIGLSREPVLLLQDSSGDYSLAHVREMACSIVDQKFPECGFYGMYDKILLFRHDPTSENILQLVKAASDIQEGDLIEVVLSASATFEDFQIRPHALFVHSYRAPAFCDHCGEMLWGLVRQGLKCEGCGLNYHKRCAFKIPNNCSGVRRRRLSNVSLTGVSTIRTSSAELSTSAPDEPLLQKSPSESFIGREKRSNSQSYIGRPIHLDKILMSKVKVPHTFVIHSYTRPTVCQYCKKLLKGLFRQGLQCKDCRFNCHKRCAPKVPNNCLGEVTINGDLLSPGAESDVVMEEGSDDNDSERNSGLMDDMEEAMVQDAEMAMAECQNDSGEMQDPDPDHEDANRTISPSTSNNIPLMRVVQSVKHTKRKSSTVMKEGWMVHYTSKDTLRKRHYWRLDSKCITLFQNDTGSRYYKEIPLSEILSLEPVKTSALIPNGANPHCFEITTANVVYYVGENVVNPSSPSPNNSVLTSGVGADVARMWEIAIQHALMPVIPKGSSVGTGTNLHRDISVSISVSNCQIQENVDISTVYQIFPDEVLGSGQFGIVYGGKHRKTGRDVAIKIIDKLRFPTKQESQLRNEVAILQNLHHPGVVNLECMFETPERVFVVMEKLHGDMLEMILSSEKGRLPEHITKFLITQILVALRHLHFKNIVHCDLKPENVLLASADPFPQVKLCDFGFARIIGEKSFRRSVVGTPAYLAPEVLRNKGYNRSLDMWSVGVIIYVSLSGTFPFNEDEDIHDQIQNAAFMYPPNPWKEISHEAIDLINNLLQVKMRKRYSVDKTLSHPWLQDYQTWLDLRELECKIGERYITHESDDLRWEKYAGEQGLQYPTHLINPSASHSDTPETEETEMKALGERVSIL

Compound | IC50
Clc1cncc(Cl)c1N/N=C/c1ccncc1 | 9.61 µM
C/C(=N\Nc1ncc(Cl)cc1Cl)c1ccccn1 | 9.31 µM

same assay, conditions: inhibition, at 50 µM, stronger effect = higher value

Compound | inhibition
Nc1nc2ccc([N+](=O)[O-])c(N)c2s1 | 95.9%
NC(N)=NC(=O)c1nc(Cl)c(N)nc1N | 96.6%
O=C(NNC1=Nc2cccc3cccc1c23)c1ccc(Br)cc1 | -3.67%
Cn1cccc1C(=O)NC(=O)COC(=O)c1cc(S(=O)(=O)N2CCCCC2)ccc1Cl | -3.91%
CS(=O)(=O)N1CCN(c2ccccc2NC(=O)c2ccc(Br)o2)CC1 | 15.2%
NC(=O)c1cn(C2OC(CO)C(O)C2O)c2ncnc(N)c12 (stereo unspecified) | 102%
Cc1cc(NCCCN)nc(-c2ccccc2O)n1 | 94.4%
COc1ccc(CNC(=O)C2Cc3ccccc3CN2C(=O)c2ccco2)cc1 (stereo unspecified) | 9.09%
CSc1ccccc1C(=O)NCc1ccc(F)cc1 | 1.94%
CCCc1cc(=O)[nH]c(SCCCCN2C(=O)c3ccccc3C2=O)n1 | 0.534%
O=C1CSCN1c1cc(Cl)ccc1Cl | 1.32%
O=C(CSc1ccc2nnc(-c3cccnc3)n2n1)c1ccccc1 | -0.442%
CCOC(=O)c1sc(=NC(=O)CCS(=O)(=O)c2ccccc2)n(C)c1C | -2.41%
Clc1cncc(Cl)c1N/N=C/c1ccncc1 | 83.8%
O=C1NCCCc2c1oc1ccc(O)cc21 | 101%
C/C(=N\Nc1ncc(Cl)cc1Cl)c1ccccn1 | 65.6%
Cc1c(C#N)c(N)nc(Cl)c1C#N | 5.41%
O=C(O)c1cc(C(=O)C2CCCCC2)c[nH]1 | 3.08%
CCC1=NNc2cccc3c(OC)ccc1c23 | 67%
CCC(=O)Nc1c2c(nn1-c1ccccc1C)CSC2 | -1.23%
O=C(CSc1ccncc1)Nc1ccc2ccccc2c1 | -4.61%
O=[N+]([O-])c1ccc(Nc2c3ccccc3nc3ccccc23)cc1 | -1.2%
COc1ccc(Cn2c(=O)[nH]c3cc(C(=O)NC4CCCC4)ccc3c2=O)cc1 | 14.8%
O=C(Nc1ccc(CN2CCOCC2)cc1)c1ccc(-c2cccc(Cl)c2)o1 | 96.2%
CC(=O)Oc1cc(OC(C)=O)c2c(C)cc(=O)oc2c1 | 29%
Cc1cc(NC(=O)CCC(=O)N(Cc2ccco2)C(C(=O)NCC2CCCO2)c2ccncc2)no1 (stereo unspecified) | -0.875%
O=C(Nc1ccccc1C(=O)N1CCCC1)C1COc2ccccc2O1 (stereo unspecified) | 1.87%
COC(=O)c1c(NC(=O)C2C3CCC(C3)C2C(=O)O)sc2c1CCCCC2 (stereo unspecified) | 7.89%
CC1Cc2ccccc2N1c1ncnc(N)c1[N+](=O)[O-] (stereo unspecified) | 76.8%

— PubChem BioAssay AID1408 (University of Pittsburgh Molecular Library Screening Center, 2008)
